The conditions of data set [1]: aqueous medium.
Another data set addresses hmGluR5 (Homo sapiens (Human), UniProt P41594). Nature of the data set: Phosphatidylinositol Hydrolysis (IP) Assay. The data set is classed as cell-based. Particulars: hmGluR5/L38-20 cells. The procedure:
Inositol phophate assays were performed as described by Berridge et al. (1982) (Berridge et al, (1982) Biochem. J. 206: 587-5950; and Nakajima et al., J. Biol. Chem. 267:2437-2442 (1992)) with slight modifications. Mouse fibroblast Ltk cells expressing hmGluR5 (hmGluR5/L38-20 cells) were seeded in 24-well plates at a density of 8×10^5 cells/well. […] of [^3H]-inositol (Amersham PT6-271; Arlington Heights, Ill.; specific activity=17.7 Ci/mmol) was added to each well and incubated for 16 h at 37° C. Cells were washed twice and incubated for 45 min in 0.5 ml of standard Hepes buffered saline buffer (HBS; 125 mM NaCl, 5 mM KCl, […] MgS04, 1.8 mM CaCl2, 20 mM HEPES, 6 mM glucose, pH to 7.4). The cells were washed with HBS containing 10 mM LiCl, and 400 ill buffer added to each well. Cells were incubated at 37° C. for 20 min. For testing, […], of 10× compounds used in the practice of the invention [made in HBS/LiCl (100 mM)] was added and incubated for 10 minutes. Cells were activated by the addition of […] glutamate, and the plates left for 1 hour at 37° C.
The incubations were terminated by the addition of 1 mL ice-cold methanol to each well. In order to isolate inositol phosphates (IPs), the cells were scraped from wells, and placed in numbered glass test tubes. […] Scintillant was added to each vial, and the vials shaken, and counted in a scintillation counter after 2 hours. […]

For data set [2], the target named is metabotropic glutamate receptor subtype 5 (Rattus norvegicus (Rat), UniProt P31424). Description: [3H]-mGluR5 Antagonist Binding to Rodent Brain Membranes. As to the method:
In accordance with Anderson J J, Rao S P, Rowe B, Giracello D R, Holtz G, Chapman D F, Tehrani L, Bradbury M J, Cosford N D, Varney M A, [^3H]Methoxymethyl-3-[(2-methyl-1,3-thiazol-4-yl)ethynyl]pyridine binding to metabotropic glutamate receptor subtype 5 in rodent brain: in vitro and in vivo characterization. J Pharmacol Exp Ther. 2002 December; 303 (3):1044-51, membranes were prepared (as described in Ransom R W and Stec N L (1988) Cooperative modulation of [^3H]MK-801 binding to the N-methyl-D-aspartate receptor-ion channel complex by L-glutamate, glycine, and polyamines. J Neurochem 51:830-836) using whole rat brain, or mGlu5^+/+ or mGlu5^−/− whole mouse brain.
Binding assays were performed as described in Schaffhauser H, Richards J G, Cartmell J, Chaboz S, Kemp J A, Klingelschmidt A, Messer J, Stadler H, Woltering T and Mutel V (1998) In vitro binding characteristics of a new selective group II metabotropic glutamate receptor radioligand, [^3H]LY354740, in rat brain. Mol Pharmacol 53:228-233) at room temperature with slight modifications. Briefly, membranes were thawed and washed once with assay buffer (50 mM HEPES, 2 mM MgCl2, pH 7.4), followed by centrifugation at 40,000×g for 20 min. The pellet was resuspended in assay buffer and briefly homogenized with a Polytron.
For protein linearity experiments, increasing concentrations of membrane protein were added to 96-well plates in triplicate and binding was initiated by addition of 20 nM [^3H]methoxymethyl-3-[(2-methyl-1,3-thiazol-4-yl)ethynyl]pyridine. The assay was incubated for 2 h and non-specific binding was determined using 10 μM MPEP. The binding was terminated by rapid filtration through glass-fiber filters (Unifilter-96 GF/B plate, Packard) using a 96-well plate Brandel cell harvester. Following addition of scintillant, the radioactivity was determined by liquid scintillation spectrometry. Protein measurements were performed by BioRad-DC Protein assay using bovine serum albumin as the standard.
Saturation binding experiments were performed in triplicate with increasing concentrations of [^3H]methoxymethyl-3-[(2-methyl-1,3-thiazol-4-yl)ethynyl]pyridine (1 pM to 100 nM). The time course of association was measured by the addition of 10 nM [^3H]methoxymethyl-3-[(2-methyl-1,3-thiazol-4-yl)ethynyl]pyridine to the membranes at different time points (0-240 min), followed by filtration. Dissociation was measured by the addition of 100 μM unlabeled methoxymethyl-3-[(2-methyl-1,3-thiazol-4-yl)ethynyl]pyridine at different time points to membranes previously incubated for 3 h with 10 nM [^3H]methoxymethyl-3-[(2-methyl-1,3-thiazol-4-yl)ethynyl]pyridine. For competition experiments, 100 μg membrane protein and 10 nM [^3H]methoxymethyl-3-[(2-methyl-1,3-thiazol-4-yl)ethynyl]pyridine was added to wells containing increasing concentration of the test compound in duplicate (methoxymethyl-3-[(2-methyl-1,3-thiazol-4-yl)ethynyl]pyridine or MPEP). [^3H]-3-Methoxy-5-(pyridin-2-ylethynyl)pyridine may also be used as the radioligand in the procedure described above. (See, Cosford, N. D. P.; Roppe, J.; Tehrani, L.; Seiders, T. J.; Schweiger, E. J. et al. [3H]-Methoxymethyl-MTEP and [3H]-methoxy-PEPy): Potent and selective radioligands for the Metabotropic Glutamate Subtype 5 (mGlu5) Receptor. Bioorg. Med. Chem. Lett. 2003, 13, 351-354.)

Another data set has as its target hmGluR5a receptor (Homo sapiens (Human), UniProt P41594). Nature of the data set: Calcium Flux Assay. The data set is classed as cell-based. Particulars: hmGluR5a/L38-20 cells, glutamate-evoked [Ca2+]i. The procedure:
The activity of compounds was examined against the hmGluR5a receptor stably expressed in mouse fibroblast Ltk− cells (the hmGluR5a/L38-20 cell line). See generally Daggett et al., Neuropharmacology 34:871-886 (1995). Receptor activity was detected by changes in intracellular calcium ([Ca^2+]i) measured using the fluorescent calcium-sensitive dye, fura-2. hmGluR5a/L38-20 cells were plated onto 96-well plates, and loaded with 3 µM fura-2 for 1 h. Unincorporated dye was washed from the cells, and the cell plate was transferred to a custom-built 96-channel fluorimeter (SIBIA-SAIC, La Jolla, Calif.) which is integrated into a fully automated plate handling and liquid delivery system. Cells were excited at 350 and 385 nm with a xenon source combined with optical filters. Emitted light was collected from the sample through a dichroic mirror and a 510 nm interference filter and directed into a cooled CCD camera (Princeton Instruments). Image pairs were captured approximately every 1 s, and ratio images were generated after background subtraction. After a basal reading of 20 s, an EC80 concentration of glutamate ([…]) was added to the well, and the response evaluated for another 60 s. The glutamate-evoked increase in [Ca^2+]i in the presence of the screening compound was compared to the response of glutamate alone (the positive control).
For orientation: Calcium assays in cells follow changes in intracellular calcium, usually with a dye or a luminescent sensor.

Sequence of metabotropic glutamate receptor subtype 5 (P31424 21-1203): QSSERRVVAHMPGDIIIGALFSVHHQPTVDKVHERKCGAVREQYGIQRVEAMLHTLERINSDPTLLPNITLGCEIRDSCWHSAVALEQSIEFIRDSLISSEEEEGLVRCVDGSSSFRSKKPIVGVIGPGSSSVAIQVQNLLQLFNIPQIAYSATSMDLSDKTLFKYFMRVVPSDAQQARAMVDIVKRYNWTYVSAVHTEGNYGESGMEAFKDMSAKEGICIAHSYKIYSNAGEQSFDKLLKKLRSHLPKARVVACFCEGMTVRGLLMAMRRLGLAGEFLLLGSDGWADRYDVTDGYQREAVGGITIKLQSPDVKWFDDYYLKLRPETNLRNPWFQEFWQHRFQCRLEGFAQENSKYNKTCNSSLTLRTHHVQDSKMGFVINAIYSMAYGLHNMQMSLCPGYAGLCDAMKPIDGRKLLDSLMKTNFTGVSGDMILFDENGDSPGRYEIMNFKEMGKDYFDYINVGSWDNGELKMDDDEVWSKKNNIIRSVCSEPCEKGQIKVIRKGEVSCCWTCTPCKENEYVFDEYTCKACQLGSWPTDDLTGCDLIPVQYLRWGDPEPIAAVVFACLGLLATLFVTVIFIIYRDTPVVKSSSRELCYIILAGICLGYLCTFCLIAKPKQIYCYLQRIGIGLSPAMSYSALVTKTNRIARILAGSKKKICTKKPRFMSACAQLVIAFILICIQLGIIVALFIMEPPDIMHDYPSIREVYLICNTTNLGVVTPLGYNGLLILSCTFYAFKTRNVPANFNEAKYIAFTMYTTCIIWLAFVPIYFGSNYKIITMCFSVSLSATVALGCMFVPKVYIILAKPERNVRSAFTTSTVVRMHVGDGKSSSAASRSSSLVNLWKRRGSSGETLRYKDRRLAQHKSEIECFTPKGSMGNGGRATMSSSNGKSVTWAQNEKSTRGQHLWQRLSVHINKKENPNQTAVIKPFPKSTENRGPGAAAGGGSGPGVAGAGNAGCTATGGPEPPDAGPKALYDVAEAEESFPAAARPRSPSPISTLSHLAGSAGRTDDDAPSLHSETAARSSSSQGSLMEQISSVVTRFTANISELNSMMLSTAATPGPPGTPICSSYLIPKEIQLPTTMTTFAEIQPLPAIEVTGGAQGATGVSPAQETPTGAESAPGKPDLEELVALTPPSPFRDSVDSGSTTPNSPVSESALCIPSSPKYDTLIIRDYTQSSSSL
Sequence of hmGluR5a receptor (P41594 other isoform, or with tags, fused parts or gaps): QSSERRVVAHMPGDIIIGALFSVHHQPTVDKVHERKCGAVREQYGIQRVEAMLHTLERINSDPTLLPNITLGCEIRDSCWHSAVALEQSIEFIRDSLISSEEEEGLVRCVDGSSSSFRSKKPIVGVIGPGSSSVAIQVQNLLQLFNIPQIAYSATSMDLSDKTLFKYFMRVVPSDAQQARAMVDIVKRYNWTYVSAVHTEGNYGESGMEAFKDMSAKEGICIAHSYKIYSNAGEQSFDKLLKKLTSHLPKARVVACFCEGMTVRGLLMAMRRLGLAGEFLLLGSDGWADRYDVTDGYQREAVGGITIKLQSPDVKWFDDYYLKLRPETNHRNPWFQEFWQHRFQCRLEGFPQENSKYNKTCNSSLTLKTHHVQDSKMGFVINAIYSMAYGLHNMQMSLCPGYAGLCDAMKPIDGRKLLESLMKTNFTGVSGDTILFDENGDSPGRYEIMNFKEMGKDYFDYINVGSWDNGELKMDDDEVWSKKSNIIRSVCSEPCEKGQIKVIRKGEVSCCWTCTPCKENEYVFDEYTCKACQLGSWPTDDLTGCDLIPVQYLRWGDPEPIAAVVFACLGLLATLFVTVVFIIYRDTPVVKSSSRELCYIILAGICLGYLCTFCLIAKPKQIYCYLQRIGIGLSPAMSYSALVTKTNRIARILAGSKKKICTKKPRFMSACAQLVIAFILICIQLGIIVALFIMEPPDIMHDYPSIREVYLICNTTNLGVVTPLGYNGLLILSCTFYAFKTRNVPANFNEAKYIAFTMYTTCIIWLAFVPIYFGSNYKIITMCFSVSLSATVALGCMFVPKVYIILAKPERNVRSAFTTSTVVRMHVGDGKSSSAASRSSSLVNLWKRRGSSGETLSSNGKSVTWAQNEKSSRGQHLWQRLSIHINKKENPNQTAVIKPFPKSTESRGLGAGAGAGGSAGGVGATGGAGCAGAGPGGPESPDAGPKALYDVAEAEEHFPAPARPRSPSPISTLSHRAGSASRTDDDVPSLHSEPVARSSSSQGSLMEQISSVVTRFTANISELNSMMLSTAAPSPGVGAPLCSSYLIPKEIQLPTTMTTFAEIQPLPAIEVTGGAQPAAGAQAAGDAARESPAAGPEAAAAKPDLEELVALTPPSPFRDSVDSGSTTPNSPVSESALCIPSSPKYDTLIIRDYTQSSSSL
Sequence of hmGluR5 (P41594 other isoform, or with tags, fused parts or gaps): as above

As to `C(#Cc1nccs1)c1ccccc1.Cc1ccc(S(=O)(=O)O)cc1` [2-(phenylethynl)-1,3-thiazole], the solubility entry in data set [1] was “soluble in aqueous medium”.
`Cc1nc(C#Cc2ccc(-c3cc(F)cc(C#N)c3)nc2)cs1` [Example 1, 3-fluoro-5-{5-[(2-methyl-1,3-thiazol-4-yl)ethynyl]pyridin-2-yl}benzonitrile]: the 50% inhibitory concentration (IC50) at hmGluR5 stood at 33 nM; on hmGluR5a receptor, 3 nM. Besides, in data set [2], the Ki is 20 nM.
The matching figures for `Cc1nc(C#Cc2ccc(-n3ccc4ccncc43)nc2)cs1` [Example 18, 1-{5-[(2-methyl-1,3-thiazol-4-yl)ethynyl]pyridin-2-yl}-1H-pyrrolo[2,3-c]pyridine]: 2 nM, 4.9 nM and 19.3 nM.
As to `Cc1nc(C#Cc2ccc(-c3cccc(C(F)(F)F)c3)nc2)cs1` [Example 77], the Ki in data set [2] is 13 nM. Also, the half-inhibitory concentration (IC50) at hmGluR5a receptor was 3 nM.
In data set [2], `C=Cc1cncc(C#Cc2csc(C)n2)c1` [Example 78] yielded a Ki of 1.4 nM. Moreover, the IC50 on hmGluR5a receptor was found to be 3 nM.
In data set [2], `Cc1nc(C#Cc2ccc(Oc3ccccc3)nc2)cs1` [Example 79] returned a Ki of 16 nM. For the same molecule, the IC50 at hmGluR5a receptor was determined as 3 nM.
On the same counts, the results for `Cc1cncc(C#Cc2csc(C)n2)c1` [Example 80] are 3 nM and 3 nM.
The matching figures for `Cc1nc(C#Cc2ccc(N3CCC(C)CC3)nc2)cs1` [Example 81]: 6 nM and 3 nM.
On the same counts, the results for `Cc1nc(C#Cc2cncc(N(C)c3cccnc3)c2)cs1` [Example 82] are 2 nM and 3 nM.
`CCC(C)Sc1ccc(C#Cc2csc(C)n2)cn1` (centres unmarked) [Example 83]: the affinity in data set [2] corresponds to a Ki of 12 nM. For the same molecule, the IC50 on hmGluR5a receptor stood at 2 nM.
On the same counts, the results for `Cc1nc(C#Cc2cncc(-c3ccccc3CO)c2)cs1` [Example 84] are 7 nM and 2 nM.
The matching figures for `Cc1nc(C#Cc2cncc(-c3cccc(C#N)c3)c2)cs1` [Example 85]: 1 nM and 2 nM.
The matching figures for `CCCN(C)c1ccc(C#Cc2csc(C)n2)cn1` [Example 86]: 7 nM and 2 nM.
`Cc1nc(C#Cc2ccc(N3CCC(F)CC3)nc2)cs1` [Example 88] had a Ki in data set [2] of 4 nM. For the same molecule, on hmGluR5a receptor, the IC50 stood at 2 nM.
In data set [2], `CCOc1ccccc1-c1ccc(C#Cc2csc(C)n2)cn1` [Example 89] displayed a Ki of 2 nM. The IC50 on hmGluR5a receptor turned out to be 1.6 nM.
The matching figures for `Cc1nc(C#Cc2cncc(Cl)c2)cs1` [Example 90]: 4 nM and 1.5 nM.
The matching figures for `Cc1nc(C#Cc2cncc(Oc3cccnc3)c2)cs1` [Example 91]: 1 nM and 1 nM.
The matching figures for `Cc1nc(C#Cc2cnc(N3CCCC(CO)C3)nc2)cs1` (centres unmarked) [Example 92]: 7 nM and 12 nM.
In turn, `Cc1nc(C#Cc2cnc(N3CCCCCC3)nc2)cs1` [Example 93] yielded a Ki in data set [2] of 3 nM. Besides, on hmGluR5a receptor, the IC50 turned out to be 11 nM.
The matching figures for `CCC(C)Nc1ncc(C#Cc2csc(C)n2)cn1` (centres unmarked) [Example 94]: 6 nM and 9 nM.
On to `Cc1nc(C#Cc2cnc(O[C@@H](C)c3ccccc3)nc2)cs1` [Example 95], for which the Ki in data set [2] amounted to 9 nM. Besides, the IC50 at hmGluR5a receptor worked out at 8 nM.
The matching figures for `Cc1nc(C#Cc2cnc(N3CCCCC3C)nc2)cs1` (centres unmarked) [Example 96]: 5 nM and 5 nM.
The matching figures for `Cc1nc(C#Cc2cnc(N3CCCC3)nc2)cs1` [Example 97]: 13 nM and 5 nM.
On the same counts, the results for `CCN(CC)c1ncc(C#Cc2csc(C)n2)cn1` [Example 98] are 8 nM and 4 nM.
`Cc1nc(C#Cc2cnc(-n3ccc4ccncc43)nc2)cs1` [Example 99]: the Ki in data set [2] is 33 nM. Besides, the half-inhibitory concentration (IC50) at hmGluR5a receptor is 2.8 nM.
For the molecule `Cc1nc(C#Cc2cnc(N3CCSCC3)nc2)cs1` [Example 100], in data set [2], affinity was put at a Ki of 23 nM. For the same molecule, on hmGluR5a receptor, the IC50 turned out to be 2.3 nM.
On the same counts, the results for `Cc1nc(C#Cc2cnc(OC3CCN(C(=O)OC(C)(C)C)CC3)nc2)cs1` [Example 101] are 24 nM and 2 nM.
As to `Cc1nc(C#Cc2cnc(NC3CCCC3)nc2)cs1` [Example 102], the Ki in data set [2] came to 26 nM. Also, the IC50 at hmGluR5a receptor was determined as 2 nM.
The matching figures for `Cc1nc(C#Cc2cnc(N3CCCC(C)C3)nc2)cs1` (centres unmarked) [Example 103]: 1.6 nM and 1.6 nM.
With `Cc1nc(C#Cc2cnc(N3CC=CC3)nc2)cs1` [Example 104], in data set [2], the affinity, expressed as Ki, was 6 nM. Also, the IC50 at hmGluR5a receptor turned out to be 1.5 nM.
The matching figures for `Cc1nc(C#Cc2cnc(NC(C)(C)C)nc2)cs1` [Example 105]: 1 nM and 1 nM.
With `Cc1nc(C#Cc2cnc(N3CCCCC3CO)nc2)cs1` (centres unmarked) [Example 107], in data set [2], the affinity, expressed as Ki, was 9 nM. Moreover, the IC50 on hmGluR5a receptor was determined as 16 nM.

One may read the IC50 as the point on the concentration scale where inhibition reaches its midpoint. The term Ki denotes a dissociation constant, usually derived from enzyme kinetics or from competition with a known ligand.

(Values after patent US8609852B2, “Thiazolyl mGluR5 antagonists and methods for their use” (Merck Sharp & Dohme Corp., priority 2004, dated 2013).)
